Experiments:
TK-10 = assay type: cell-based; conditions: one dose 10^-5 M, 48 h
NCI-H522 = assay type: cell-based; conditions: one dose 10^-5 M, 48 h
SF-295 = assay type: cell-based; conditions: one dose 10^-5 M, 48 h
BT-549 = assay type: cell-based; conditions: one dose 10^-5 M, 48 h
UACC-62 = assay type: cell-based; conditions: one dose 10^-5 M, 48 h
K-562 = assay type: cell-based; conditions: one dose 10^-5 M, 48 h
HL-60(TB) = assay type: cell-based; conditions: one dose 10^-5 M, 48 h
HOP-92 = assay type: cell-based; conditions: one dose 10^-5 M, 48 h
HCT-116 = assay type: cell-based; conditions: one dose 10^-5 M, 48 h
U251 = assay type: cell-based; conditions: one dose 10^-5 M, 48 h
ACHN = assay type: cell-based; conditions: one dose 10^-5 M, 48 h
OVCAR-5 = assay type: cell-based; conditions: one dose 10^-5 M, 48 h
UACC-257 = assay type: cell-based; conditions: one dose 10^-5 M, 48 h
786-0 = assay type: cell-based; conditions: one dose 10^-5 M, 48 h
LOX IMVI = assay type: cell-based; conditions: one dose 10^-5 M, 48 h
SNB-75 = assay type: cell-based; conditions: one dose 10^-5 M, 48 h
NCI-H460 = assay type: cell-based; conditions: one dose 10^-5 M, 48 h
A549/ATCC = assay type: cell-based; conditions: one dose 10^-5 M, 48 h
OVCAR-8 = assay type: cell-based; conditions: one dose 10^-5 M, 48 h
HS 578T = assay type: cell-based; conditions: one dose 10^-5 M, 48 h; HS 578T
SW-620 = assay type: cell-based; conditions: one dose 10^-5 M, 48 h
SN12C = assay type: cell-based, human; conditions: one dose 10^-5 M, 48 h
CCRF-CEM = assay type: cell-based; conditions: one dose 10^-5 M, 48 h
MOLT-4 = assay type: cell-based; conditions: one dose 10^-5 M, 48 h
SK-OV-3 = assay type: cell-based; conditions: one dose 10^-5 M, 48 h
SF-539 = assay type: cell-based; conditions: one dose 10^-5 M, 48 h
OVCAR-4 = assay type: cell-based; conditions: one dose 10^-5 M, 48 h
UO-31 = assay type: cell-based; conditions: one dose 10^-5 M, 48 h
IGROV1 = assay type: cell-based; conditions: one dose 10^-5 M, 48 h
HCC-2998 = assay type: cell-based; conditions: one dose 10^-5 M, 48 h
SK-MEL-2 = assay type: cell-based; conditions: one dose 10^-5 M, 48 h
A498 = assay type: cell-based; conditions: one dose 10^-5 M, 48 h
HCT-15 = assay type: cell-based; conditions: one dose 10^-5 M, 48 h
[1] = test system: full NCI 60 cell lines panel; conditions: for activity on all 60 cancer cell lines tested (in words): one dose; for Mean % growth: one dose 10^-5 M, 48 h, mean over all cell lines
T-47D = assay type: cell-based; conditions: one dose 10^-5 M, 48 h
CAKI-1 = assay type: cell-based; conditions: one dose 10^-5 M, 48 h
COLO 205 = assay type: cell-based; conditions: one dose 10^-5 M, 48 h
SNB-19 = assay type: cell-based; conditions: one dose 10^-5 M, 48 h
NCI-H226 = assay type: cell-based; conditions: one dose 10^-5 M, 48 h
M14 = assay type: cell-based; conditions: one dose 10^-5 M, 48 h
HT29 = assay type: cell-based; conditions: one dose 10^-5 M, 48 h
MCF7 = assay type: cell-based; conditions: one dose 10^-5 M, 48 h
SF-268 = assay type: cell-based; conditions: one dose 10^-5 M, 48 h
OVCAR-3 = assay type: cell-based; conditions: one dose 10^-5 M, 48 h
DU-145 = assay type: cell-based; conditions: one dose 10^-5 M, 48 h
NCI/ADR-RES = assay type: cell-based; conditions: one dose 10^-5 M, 48 h
NCI-H23 = assay type: cell-based; conditions: one dose 10^-5 M, 48 h
SK-MEL-28 = assay type: cell-based; conditions: one dose 10^-5 M, 48 h
SR = assay type: cell-based; conditions: one dose 10^-5 M, 48 h
EKVX = assay type: cell-based; conditions: one dose 10^-5 M, 48 h
PC-3 = assay type: cell-based; conditions: one dose 10^-5 M, 48 h
MDA-MB-468 = assay type: cell-based; conditions: one dose 10^-5 M, 48 h
HOP-62 = assay type: cell-based; conditions: one dose 10^-5 M, 48 h
RPMI-8226 = assay type: cell-based; conditions: one dose 10^-5 M, 48 h
MDA-MB-435 = assay type: cell-based; conditions: one dose 10^-5 M, 48 h
MALME-3M = assay type: cell-based; conditions: one dose 10^-5 M, 48 h
KM12 = assay type: cell-based; conditions: one dose 10^-5 M, 48 h
SK-MEL-5 = assay type: cell-based; conditions: one dose 10^-5 M, 48 h
MDA-MB-231/ATCC = assay type: cell-based; conditions: one dose 10^-5 M, 48 h

Substance: 3-Amino-4-[4-(dimethylamino)phenyl]-1H-pyrazolo[3,4-d]pyrimidine-6-thiol [Compound 3a]
- % growth (TK-10): 119.65%
- % growth (NCI-H522): 92.08%
- % growth (SF-295): 105.95%
- % growth (BT-549): 95.32%
- % growth (UACC-62): 97.30%
- % growth (K-562): 102.48%
- % growth (HL-60(TB)): 89.88%
- % growth (HOP-92): 116.09%
- % growth (HCT-116): 101.11%
- % growth (U251): 109.49%
- % growth (ACHN): 92.14%
- % growth (OVCAR-5): 107.30%
- % growth (UACC-257): 110.00%
- % growth (786-0): 109.39%
- % growth (LOX IMVI): 97.52%
- % growth (SNB-75): 116.67%
- % growth (NCI-H460): 108.52%
- % growth (A549/ATCC): 110.12%
- % growth (OVCAR-8): 104.18%
- % growth (HS 578T): 108.39%
- % growth (SW-620): 115.71%
- % growth (SN12C): 100.69%
- % growth (CCRF-CEM): 77.55%
- % growth (MOLT-4): 100.00%
- % growth (SK-OV-3): 107.23%
- % growth (SF-539): 108.53%
- % growth (OVCAR-4): 103.10%
- % growth (UO-31): 58.31%
- % growth (IGROV1): 104.23%
- % growth (HCC-2998): 108.59%
- % growth (SK-MEL-2): 111.64%
- % growth (A498): 162.31%
- % growth (HCT-15): 95.53%
- activity on all 60 cancer cell lines tested (in words) [1]: weak activity
- Mean % growth [1]: 103.40%
- % growth (T-47D): 102.75%
- % growth (CAKI-1): 92.97%
- % growth (COLO 205): 120.31%
- % growth (SNB-19): 101.52%
- % growth (NCI-H226): 95.19%
- % growth (M14): 99.09%
- % growth (HT29): 108.47%
- % growth (MCF7): 88.54%
- % growth (SF-268): 105.34%
- % growth (OVCAR-3): 116.36%
- % growth (DU-145): 116.81%
- % growth (NCI/ADR-RES): 103.45%
- % growth (NCI-H23): 98.77%
- % growth (SK-MEL-28): 112.69%
- % growth (SR): 90.80%
- % growth (EKVX): 97.12%
- % growth (PC-3): 78.25%
- % growth (MDA-MB-468): 115.89%
- % growth (HOP-62): 108.87%
- % growth (RPMI-8226): 86.49%
- % growth (MDA-MB-435): 109.49%
- % growth (MALME-3M): 102.71%
- % growth (KM12): 97.17%
- % growth (SK-MEL-5): 104.39%
- % growth (MDA-MB-231/ATCC): 98.99%

Substance: 4-Amino-6-[4-(dimethylamino)phenyl]-2-mercaptopyrimidine-5-carboximidohydrazide [Compound 2a]
- % growth (TK-10): 112.54%
- % growth (NCI-H522): 100.34%
- % growth (SF-295): 112.06%
- % growth (BT-549): 106.15%
- % growth (UACC-62): 96.91%
- % growth (K-562): 103.46%
- % growth (HL-60(TB)): 99.62%
- % growth (HOP-92): 114.12%
- % growth (HCT-116): 103.97%
- % growth (U251): 106.99%
- % growth (ACHN): 99.26%
- % growth (OVCAR-5): 116.97%
- % growth (UACC-257): 109.40%
- % growth (786-0): 105.86%
- % growth (LOX IMVI): 101.99%
- % growth (SNB-75): 115.82%
- % growth (NCI-H460): 102.69%
- % growth (A549/ATCC): 107.34%
- % growth (OVCAR-8): 116.82%
- % growth (HS 578T): 111.82%
- % growth (SW-620): 105.68%
- % growth (SN12C): 106.67%
- % growth (CCRF-CEM): 91.59%
- % growth (MOLT-4): 109.54%
- % growth (SK-OV-3): 120.70%
- % growth (SF-539): 107.89%
- % growth (OVCAR-4): 96.78%
- % growth (UO-31): 69.66%
- % growth (IGROV1): 109.01%
- % growth (HCC-2998): 114.82%
- % growth (SK-MEL-2): 117.18%
- % growth (A498): 129.90%
- % growth (HCT-15): 103.47%
- activity on all 60 cancer cell lines tested (in words) [1]: weak activity
- Mean % growth [1]: 105.50%
- % growth (T-47D): 99.52%
- % growth (CAKI-1): 93.33%
- % growth (COLO 205): 134.76%
- % growth (SNB-19): 101.46%
- % growth (NCI-H226): 96.50%
- % growth (M14): 103.05%
- % growth (HT29): 107.55%
- % growth (MCF7): 86.35%
- % growth (SF-268): 101.57%
- % growth (OVCAR-3): 105.79%
- % growth (DU-145): 111.10%
- % growth (NCI/ADR-RES): 104.56%
- % growth (NCI-H23): 104.78%
- % growth (SK-MEL-28): 108.97%
- % growth (SR): 102.70%
- % growth (EKVX): 95.76%
- % growth (PC-3): 87.24%
- % growth (MDA-MB-468): 117.68%
- % growth (HOP-62): 107.78%
- % growth (RPMI-8226): 98.02%
- % growth (MDA-MB-435): 114.53%
- % growth (MALME-3M): 100.97%
- % growth (KM12): 103.89%
- % growth (SK-MEL-5): 104.41%
- % growth (MDA-MB-231/ATCC): 103.57%

From publication PMC10866072, “Design, synthesis, molecular modelling and biological evaluation of novel 6-amino-5-cyano-2-thiopyrimidine derivatives as potent anticancer agents against leukemia and apoptotic inducers” (Journal of Enzyme Inhibition and Medicinal Chemistry, 2024)
